Test systems include SNB-75 CNS; SK-MEL-5 melanoma; SF-268 CNS; MCF7 breast; HCT-116 colon; OVCAR-5 ovarian; T-47D breast; TK-10 renal; SK-MEL-2 melanoma; MALME-3M melanoma.
What all share (experiment): NCI-60 cell line screen, 48 h

The source of these data is PubChem BioAssay (NCI).

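The compound was tested at five concentrations on cells cultured in 96-well plates, with a 48-hour exposure period. GI50 = concentration required for 50% inhibition of growth. TGI is the concentration that stops growth completely.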

Consider `Fc1ccc(-c2c(-c3ccncc3)nc3n2CCS3)cc1`, for which the GI50 with SNB-75 CNS, in the test with SK-MEL-5 melanoma, in the test with SF-268 CNS, with MCF7 breast, in the test on HCT-116 colon and in the test on OVCAR-5 ovarian was over 25 µM throughout. In addition, the GI50 with T-47D breast, with TK-10 renal, in the test on SK-MEL-2 melanoma and with MALME-3M melanoma was over 25 µM each time. In addition, the TGI with SNB-75 CNS, in the test on SK-MEL-5 melanoma, with SF-268 CNS, in the test with MCF7 breast, in the test on HCT-116 colon and with OVCAR-5 ovarian was over 25 µM each time. Besides, the TGI in the test with T-47D breast, in the test on TK-10 renal, in the test with SK-MEL-2 melanoma and with MALME-3M melanoma was over 25 µM in each case.
Regarding `CNC(=O)c1ccc(N2C(=S)N(c3cnc(C#N)c(C(F)(F)F)c3)C(=O)C23CCC3)cc1F`, the GI50 in the test on SNB-75 CNS is over 100 µM; in the test with SK-MEL-5 melanoma it was over 100 µM; in the test with SF-268 CNS, over 100 µM; with MCF7 breast, 99.8 µM; in the test on HCT-116 colon, over 95.4 µM; in the test with OVCAR-5 ovarian, over 100 µM. Moreover, the GI50 is 80.6 µM with T-47D breast, over 100 µM with TK-10 renal, over 100 µM in the test with SK-MEL-2 melanoma and 98.3 µM in the test with MALME-3M melanoma. Also, the TGI in the test on SNB-75 CNS, in the test with SK-MEL-5 melanoma, in the test on SF-268 CNS, with MCF7 breast, with HCT-116 colon and in the test with OVCAR-5 ovarian was over 100 µM throughout. Moreover, the TGI in the test on T-47D breast, in the test with TK-10 renal, in the test on SK-MEL-2 melanoma and with MALME-3M melanoma was over 100 µM in each case.
For `CCOC(=O)Cc1c(C)c2cc(C(=O)c3ccccc3)c(O)cc2oc1=O`, the TGI with SNB-75 CNS is 74.7 µM; with SK-MEL-5 melanoma it was 40 µM; with SF-268 CNS it was 84.9 µM; with MCF7 breast, 63.9 µM; with HCT-116 colon, over 100 µM; in the test on OVCAR-5 ovarian, over 100 µM. Further, the TGI was 88.3 µM in the test on T-47D breast, over 100 µM with TK-10 renal, 40.2 µM in the test with SK-MEL-2 melanoma and 62.1 µM in the test on MALME-3M melanoma.
Take `O=c1oc2ccc(I)cc2c(=O)n1-c1ccc(Br)cc1F`: the GI50 was 0.374 µM in the test with SNB-75 CNS; 0.317 µM with SK-MEL-5 melanoma; 0.673 µM in the test on SF-268 CNS; 1.34 µM in the test on MCF7 breast; 0.621 µM with HCT-116 colon; 3.55 µM in the test with OVCAR-5 ovarian. In addition, the GI50 in the test on T-47D breast was 0.856 µM; in the test with TK-10 renal it was 3.81 µM; in the test with SK-MEL-2 melanoma, 0.385 µM; in the test with MALME-3M melanoma, 0.462 µM. The TGI in the test on SNB-75 CNS was 2.48 µM; in the test on SK-MEL-5 melanoma, 1.04 µM; in the test on SF-268 CNS, 8.52 µM; with MCF7 breast it was 9.22 µM; in the test on HCT-116 colon, 2.38 µM; with OVCAR-5 ovarian it was over 100 µM. Besides, the TGI was found to be 6.7 µM in the test on T-47D breast, 10.2 µM in the test with TK-10 renal, 2.29 µM in the test with SK-MEL-2 melanoma and 2.55 µM in the test with MALME-3M melanoma.
With `CCCCCCCCCCCCCCCC1=NCC[N+]1(CCO)CCO`, the GI50 in the test on SNB-75 CNS was 2.47 µM; with SK-MEL-5 melanoma, 4.39 µM; in the test with SF-268 CNS, 1.71 µM; in the test with MCF7 breast, 3.46 µM; with HCT-116 colon, 1.59 µM; in the test on OVCAR-5 ovarian, 1.97 µM. Besides, the GI50 in the test on T-47D breast is 3.35 µM; in the test on TK-10 renal it was 3.55 µM; in the test on SK-MEL-2 melanoma, 2.89 µM; with MALME-3M melanoma it was 12.2 µM. Moreover, the TGI was 16.6 µM in the test on SNB-75 CNS; 16.1 µM in the test with SK-MEL-5 melanoma; 3.46 µM in the test with SF-268 CNS; 14 µM in the test with MCF7 breast; 2.94 µM in the test on HCT-116 colon; 4.15 µM in the test on OVCAR-5 ovarian. For the same compound, the TGI was determined as 13.2 µM in the test with T-47D breast, 13.6 µM in the test with TK-10 renal, 10.3 µM in the test with SK-MEL-2 melanoma and 28 µM in the test on MALME-3M melanoma.
`CCc1cccc(C(C)C)c1NC(=O)C(=O)C1C(=O)Nc2ccccc2S1=O` (stereo not given): the TGI with SNB-75 CNS, in the test on SK-MEL-5 melanoma, in the test on SF-268 CNS, with MCF7 breast, with HCT-116 colon and in the test on OVCAR-5 ovarian was over 100 µM in each case. Besides, the TGI with T-47D breast, in the test on TK-10 renal, in the test on SK-MEL-2 melanoma and with MALME-3M melanoma was over 100 µM in each case.
`COc1ccc(Nc2nc3cc(N)cc(N)c3nc2-c2ccccc2)cc1`: the GI50 with SNB-75 CNS was 14.6 µM; in the test with SK-MEL-5 melanoma it was 15.3 µM; with SF-268 CNS it was 13 µM; with MCF7 breast, 14.9 µM; with HCT-116 colon, 14.9 µM; with OVCAR-5 ovarian it was 21.5 µM. For the same compound, the GI50 was 17.8 µM in the test with T-47D breast, 16.5 µM in the test on TK-10 renal, 15.6 µM with SK-MEL-2 melanoma and 15 µM in the test with MALME-3M melanoma. Further, the TGI stood at 42.6 µM in the test with SNB-75 CNS; 28.6 µM with SK-MEL-5 melanoma; 30.6 µM in the test on SF-268 CNS; 28.1 µM in the test on MCF7 breast; 28.1 µM in the test with HCT-116 colon; 53.4 µM in the test on OVCAR-5 ovarian. Also, the TGI was determined as 53.8 µM in the test on T-47D breast, 42.5 µM with TK-10 renal, 31.4 µM in the test with SK-MEL-2 melanoma and 28.3 µM in the test on MALME-3M melanoma.
